Experimental data taken from US12723063B2, “GIPR-agonist compounds” (Eli Lilly and Company, priority 2019, dated 2026).
*1 amine or outer side, *2 acyl side, *3 side chain or, on linkers, in order; H or OH if unused. Where a SMILES comes first, the peptide text is derived from it. Side-chain parts run from the residue outwards. [ ]: non-standard residue; d: D form. The star is where a group is joined. C20 diacid = O=C(O)CCCCCCCCCCCCCCCCCCC(=O)*; C18 diacid = O=C(O)CCCCCCCCCCCCCCCCC(=O)*; αMePhe(2-F) = C[C@](N)(Cc1ccccc1F)C(=O)O; γGlu = O=C(O)[C@H](CCC(=O)[*:2])N[*:1]; 4Pal = N[C@@H](Cc1ccncc1)C(=O)O; αMeL = CC(C)C[C@](C)(N)C(=O)O; Orn = NCCC[C@H](N)C(=O)O; AEEA = NCCOCCOCC(=O)O; Aib = CC(C)(N)C(=O)O

Experiments:
[1] = molecular target: T1, human GIPR (Homo sapiens, UniProt P48546); assay: [125I]-GIP binding, SPA with WGA beads, 0.1% bacitracin; conditions: geometric mean, read-out: hGIPR Ki
T1 construct: expressed in transfected cells; crude membranes
T1 sequence (P48546 22-466): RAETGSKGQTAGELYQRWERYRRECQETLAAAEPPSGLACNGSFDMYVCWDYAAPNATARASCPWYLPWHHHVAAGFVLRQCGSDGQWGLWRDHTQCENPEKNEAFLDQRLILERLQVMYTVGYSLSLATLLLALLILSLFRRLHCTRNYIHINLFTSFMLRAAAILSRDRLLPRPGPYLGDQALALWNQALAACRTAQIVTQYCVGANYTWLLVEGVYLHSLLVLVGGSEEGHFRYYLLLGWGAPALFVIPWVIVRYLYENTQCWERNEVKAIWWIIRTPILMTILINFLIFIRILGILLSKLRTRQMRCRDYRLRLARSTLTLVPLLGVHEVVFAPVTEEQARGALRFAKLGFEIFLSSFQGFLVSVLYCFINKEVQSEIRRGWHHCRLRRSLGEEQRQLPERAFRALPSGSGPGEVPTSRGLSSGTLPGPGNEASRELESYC
How it was run: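 Ki values are geometric means (SEM, n independent days), derived from four-parameter nonlinear regression of IC50. Membranes came from hGIPR-expressing CHO cells.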

[2] = molecular target: T2, human glucose-dependent insulinotropic peptide receptor (GIPR) (Homo sapiens, UniProt P48546); assay: cAMP functional assay (HTRF) in HEK293 cells in presence of 0.1% casein; type: cell-based; conditions: HEK293 cells expressing human GIPR, geometric mean, read-out: hGIPR cAMP Rel EC50 nM (SEM, n)
T2 construct: expressed in transfected cells; host or cells: HEK293
T2 sequence (P48546 22-466): T1 sequence (P48546 22-466)

Compound	Ki [1] [nM]	EC50 [2] [nM]
CC[C@H](C)[C@H](NC(=O)[C@H](CO)NC(=O)[C@H](Cc1ccc(O)cc1)NC(=O)[C@H](CC(=O)O)NC(=O)[C@H](CO)NC(=O)[C@@H](NC(=O)[C@](C)(Cc1ccccc1F)NC(=O)[C@@H](NC(=O)CNC(=O)[C@H](CCC(=O)O)NC(=O)[C@H](C)NC(=O)[C@@H](Cc1ccc(O)cc1)NC(C)=O)[C@@H](C)O)[C@@H](C)CC)C(=O)N[C@@H](C)C(=O)N[C@@H](CC(C)C)C(=O)N[C@@H](CC(=O)O)C(=O)N[C@@H](CCCCN)C(=O)N[C@@H](CCCCNC(=O)COCCOCCNC(=O)COCCOCCNC(=O)CC[C@H](NC(=O)CCCCCCCCCCCCCCCCC(=O)O)C(=O)O)C(=O)N[C@@H](Cc1c[nH]cn1)C(=O)N[C@@H](CCC(N)=O)C(=O)NC(C)(C)C(=O)N[C@@H](CCC(=O)O)C(=O)N[C@@H](Cc1ccccc1)C(=O)N[C@H](C(=O)N[C@@H](CC(N)=O)C(=O)N[C@@H](Cc1ccc(O)cc1)C(=O)N[C@@H](CC(C)C)C(=O)N[C@@H](CC(C)C)C(=O)N[C@@H](C)C(=O)NCC(=O)NCC(=O)N1CCC[C@H]1C(=O)N[C@@H](CO)C(=O)N[C@@H](CO)C(=O)NCC(=O)N[C@@H](C)C(=O)N1CCC[C@H]1C(=O)N1CCC[C@H]1C(=O)N1CCC[C@H]1C(=O)N[C@@H](CO)C(N)=O)C(C)C [Example 30] (Ac-[dY]AEGT[αMePhe(2-F)]ISDYSIALDKK([AEEA-AEEA-γGlu-C18 diacid])HQ[Aib]EFVNYLLAGGPSSGAPPPS-NH2)	0.037	0.00572
CC[C@H](C)[C@H](NC(=O)[C@H](CCCN)NC(=O)[C@H](CC(=O)O)NC(=O)[C@H](CC(C)C)NC(=O)[C@](C)(CC(C)C)NC(=O)[C@@H](NC(=O)[C@H](CO)NC(=O)[C@H](Cc1ccc(O)cc1)NC(=O)[C@H](CC(=O)O)NC(=O)[C@H](CO)NC(=O)[C@@H](NC(=O)[C@H](Cc1ccccc1)NC(=O)[C@@H](NC(=O)CNC(=O)[C@H](CCC(=O)O)NC(=O)C(C)(C)NC(=O)[C@@H](N)Cc1ccc(O)cc1)[C@@H](C)O)[C@@H](C)CC)[C@@H](C)CC)C(=O)N[C@@H](Cc1c[nH]cn1)C(=O)N[C@@H](CCC(N)=O)C(=O)NC(C)(C)C(=O)N[C@@H](CCC(=O)O)C(=O)N[C@@H](Cc1ccccc1)C(=O)N[C@H](C(=O)N[C@@H](CCC(=O)O)C(=O)N[C@@H](Cc1ccc(O)cc1)C(=O)N[C@@H](CCCCNC(=O)COCCOCCNC(=O)COCCOCCNC(=O)CC[C@H](NC(=O)CCCCCCCCCCCCCCCCCCC(=O)O)C(=O)O)C(=O)N[C@@H](CC(C)C)C(=O)N[C@@H](CCC(=O)O)C(=O)N[C@@H](C)C(=O)NCC(=O)N1CCC[C@H]1C(=O)N[C@@H](CO)C(=O)N[C@@H](CO)C(=O)NCC(=O)N[C@@H](C)C(=O)N1CCC[C@H]1C(=O)N1CCC[C@H]1C(=O)N1CCC[C@H]1C(=O)N[C@@H](CO)C(N)=O)C(C)C [Example 104] (H-Y[Aib]EGTFISDYSI[αMeL]LD[Orn]IHQ[Aib]EFVEYK([AEEA-AEEA-γGlu-C20 diacid])LEAGPSSGAPPPS-NH2)	0.134	0.0165
CC[C@H](C)[C@H](NC(=O)[C@H](Cc1ccccc1)NC(=O)[C@@H](NC(=O)CNC(=O)[C@H](CCC(=O)O)NC(=O)C(C)(C)NC(=O)[C@@H](N)Cc1ccc(O)cc1)[C@@H](C)O)C(=O)N[C@@H](CO)C(=O)N[C@@H](CC(=O)O)C(=O)N[C@@H](Cc1ccc(O)cc1)C(=O)N[C@@H](CO)C(=O)N[C@H](C(=O)N[C@@](C)(CC(C)C)C(=O)N[C@@H](CC(C)C)C(=O)N[C@@H](CC(=O)O)C(=O)N[C@@H](CCCCN)C(=O)N[C@@H](CCCCNC(=O)COCCOCCNC(=O)COCCOCCNC(=O)CC[C@H](NC(=O)CCCCCCCCCCCCCCCCCCC(=O)O)C(=O)O)C(=O)N[C@@H](Cc1c[nH]cn1)C(=O)N[C@@H](CCC(N)=O)C(=O)NC(C)(C)C(=O)N[C@@H](CC(=O)O)C(=O)N[C@@H](Cc1ccccc1)C(=O)N[C@H](C(=O)N[C@@H](CCC(=O)O)C(=O)N[C@@H](Cc1ccncc1)C(=O)N[C@@H](CC(C)C)C(=O)N[C@@H](CC(C)C)C(=O)N[C@@H](C)C(=O)N[C@@H](CCC(N)=O)C(=O)NCC(=O)N1CCC[C@H]1C(=O)N[C@@H](CO)C(=O)N[C@@H](CO)C(=O)NCC(=O)N[C@@H](C)C(=O)N1CCC[C@H]1C(=O)N1CCC[C@H]1C(=O)N1CCC[C@H]1C(=O)N[C@@H](CO)C(N)=O)C(C)C)[C@@H](C)CC [Example 79] (H-Y[Aib]EGTFISDYSI[αMeL]LDKK([AEEA-AEEA-γGlu-C20 diacid])HQ[Aib]DFVE[4Pal]LLAQGPSSGAPPPS-NH2)	0.0229	0.0316
CC[C@H](C)[C@H](NC(=O)[C@H](CCCN)NC(=O)[C@H](CC(=O)O)NC(=O)[C@H](CC(C)C)NC(=O)[C@](C)(CC(C)C)NC(=O)[C@@H](NC(=O)[C@H](CO)NC(=O)[C@H](Cc1ccc(O)cc1)NC(=O)[C@H](CC(=O)O)NC(=O)[C@H](CO)NC(=O)[C@@H](NC(=O)[C@H](Cc1ccccc1)NC(=O)[C@@H](NC(=O)CNC(=O)[C@H](CCC(=O)O)NC(=O)C(C)(C)NC(=O)[C@@H](N)Cc1ccc(O)cc1)[C@@H](C)O)[C@@H](C)CC)[C@@H](C)CC)C(=O)N[C@@H](Cc1c[nH]cn1)C(=O)N[C@@H](CCC(N)=O)C(=O)NC(C)(C)C(=O)N[C@@H](CC(=O)O)C(=O)N[C@@H](Cc1ccccc1)C(=O)N[C@H](C(=O)N[C@H](CCC(=O)O)C(=O)N[C@@H](Cc1ccc(O)cc1)C(=O)N[C@@H](CCCCNC(=O)COCCOCCNC(=O)COCCOCCNC(=O)CC[C@H](NC(=O)CCCCCCCCCCCCCCCCCCC(=O)O)C(=O)O)C(=O)N[C@@H](CC(C)C)C(=O)N[C@@H](CCC(=O)O)C(=O)NCC(=O)NCC(=O)N1CCC[C@H]1C(=O)N[C@@H](CO)C(=O)N[C@@H](CO)C(=O)NCC(=O)N[C@@H](C)C(=O)N1CCC[C@H]1C(=O)N1CCC[C@H]1C(=O)N1CCC[C@H]1C(=O)N[C@@H](CO)C(N)=O)C(C)C [Example 101]	0.139	0.0396
CC[C@H](C)[C@H](NC(=O)[C@H](CO)NC(=O)[C@H](Cc1ccc(O)cc1)NC(=O)[C@H](CC(=O)O)NC(=O)[C@H](CO)NC(=O)[C@@H](NC(=O)[C@H](Cc1ccccc1)NC(=O)[C@@H](NC(=O)CNC(=O)[C@H](CCC(=O)O)NC(=O)[C@@H](C)NC(=O)[C@@H](N)Cc1ccc(O)cc1)[C@@H](C)O)[C@@H](C)CC)C(=O)N[C@@H](CC(C)C)C(=O)N[C@@H](CC(C)C)C(=O)N[C@@H](CC(=O)O)C(=O)N[C@@H](CCCCN)C(=O)N[C@@H](CCCCNC(=O)COCCOCCNC(=O)COCCOCCNC(=O)CC[C@H](NC(=O)CCCCCCCCCCCCCCCCC(=O)O)C(=O)O)C(=O)N[C@@H](C)C(=O)N[C@@H](CCC(N)=O)C(=O)NC(C)(C)C(=O)N[C@@H](CCC(=O)O)C(=O)N[C@@H](Cc1ccccc1)C(=O)N[C@H](C(=O)N[C@@H](CCC(N)=O)C(=O)N[C@@H](Cc1c[nH]c2ccccc12)C(=O)N[C@@H](CC(C)C)C(=O)N[C@@H](CC(C)C)C(=O)N[C@@H](C)C(=O)NCC(=O)NCC(=O)N1CCC[C@H]1C(=O)N[C@@H](CO)C(=O)N[C@@H](CO)C(=O)NCC(=O)N[C@@H](C)C(=O)N1CCC[C@H]1C(=O)N1CCC[C@H]1C(=O)N1CCC[C@H]1C(=O)N[C@@H](CO)C(N)=O)C(C)C [Example 27] (H-Y[dA]EGTFISDYSILLDKK([AEEA-AEEA-γGlu-C18 diacid])AQ[Aib]EFVQWLLAGGPSSGAPPPS-NH2)	0.0354	0.0132
CC[C@H](C)[C@H](NC(=O)[C@H](CCCCN)NC(=O)[C@H](CC(=O)O)NC(=O)[C@H](CC(C)C)NC(=O)[C@](C)(CC(C)C)NC(=O)[C@@H](NC(=O)[C@H](CO)NC(=O)[C@H](Cc1ccc(O)cc1)NC(=O)[C@H](CC(=O)O)NC(=O)[C@H](CO)NC(=O)[C@@H](NC(=O)[C@H](Cc1ccccc1)NC(=O)[C@@H](NC(=O)CNC(=O)[C@H](CCC(=O)O)NC(=O)C(C)(C)NC(=O)[C@@H](N)Cc1ccc(O)cc1)[C@@H](C)O)[C@@H](C)CC)[C@@H](C)CC)C(=O)N[C@@H](CCCNC(=N)N)C(=O)N[C@@H](CCC(N)=O)C(=O)NC(C)(C)C(=O)N[C@@H](CC(=O)O)C(=O)N[C@@H](Cc1ccccc1)C(=O)N[C@H](C(=O)N[C@@H](CCC(=O)O)C(=O)N[C@@H](Cc1ccc(O)cc1)C(=O)N[C@@H](CCCCNC(=O)COCCOCCNC(=O)COCCOCCNC(=O)CC[C@H](NC(=O)CCCCCCCCCCCCCCCCCCC(=O)O)C(=O)O)C(=O)N[C@@H](CC(C)C)C(=O)N[C@@H](CCC(=O)O)C(=O)NCC(=O)NCC(=O)N1CCC[C@H]1C(=O)N[C@@H](CO)C(=O)N[C@@H](CO)C(=O)NCC(=O)N[C@@H](C)C(=O)N1CCC[C@H]1C(=O)N1CCC[C@H]1C(=O)N1CCC[C@H]1C(=O)N[C@@H](CO)C(N)=O)C(C)C [Example 115] (H-Y[Aib]EGTFISDYSI[αMeL]LDKIRQ[Aib]DFVEYK([AEEA-AEEA-γGlu-C20 diacid])LEGGPSSGAPPPS-NH2)	0.0997	0.0372
